Data taken from patent publication US11052092B2, “N-{[2-(piperidin-1-yl)phenyl](phenyl)methyl}-2-(3-oxo-3,4-dihydro-2H-1,4-benzoxazin-7-yl)acetamide derivatives and related compounds as ROR-gamma modulators for treating autoimmune diseases” (Genfit, priority 2017, dated 2021).

Legend:
human RORγt = biological target: T1, human RORγt (Homo sapiens, UniProt P51449); assay: RORE Luciferase/RORγt transactivation assay; format: cell-based; conditions: COS-7 cells transfected with human IL-17 promoter luciferase reporter and RORγt plasmid; 20 h with compound; read-out: IC50, RORγt activity inhibition
T1 construct: the full-length cDNA of human RORγt; expressed in transfected cells; host or cells: COS-7 (monkey kidney)
T1 sequence (P51449 1-497 isoform P51449-2): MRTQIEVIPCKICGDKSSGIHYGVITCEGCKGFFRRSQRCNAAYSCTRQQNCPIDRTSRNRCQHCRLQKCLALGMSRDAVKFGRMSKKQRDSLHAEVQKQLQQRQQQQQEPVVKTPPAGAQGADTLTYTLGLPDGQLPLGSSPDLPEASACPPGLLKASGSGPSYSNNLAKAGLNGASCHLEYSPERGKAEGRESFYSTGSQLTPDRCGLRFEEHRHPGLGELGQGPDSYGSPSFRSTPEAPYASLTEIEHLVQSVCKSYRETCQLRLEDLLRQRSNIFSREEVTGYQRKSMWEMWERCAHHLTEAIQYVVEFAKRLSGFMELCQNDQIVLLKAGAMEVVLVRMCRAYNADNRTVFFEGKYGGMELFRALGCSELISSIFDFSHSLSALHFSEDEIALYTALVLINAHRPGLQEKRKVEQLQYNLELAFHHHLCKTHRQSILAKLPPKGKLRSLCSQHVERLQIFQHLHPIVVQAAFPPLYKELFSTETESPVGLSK
In short: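 COS-7 cells were transiently co-transfected with a human IL-17 promoter (RORE/CNS)–luciferase reporter and a RORγt expression plasmid, then seeded at 10000 cells/well in serum-free, phenol red-free DMEM. Compounds were added at 0.3% DMSO final. Luciferase was read with Steady-Glo, and IC50 and Emax were derived.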

[1] = biological target: T2, RORγt ligand-binding domain (RORγt-LBD) (Homo sapiens, UniProt P51449); assay: Time-resolved FRET (TR-FRET) RORγt coactivator assay; conditions: GST-RORγ-LBD, biotinylated RIP140 peptide, 2 hours at room temperature
T2 construct: 20 nM recombinantly expressed RORγ-LBD fused to GST
T2 sequence (P51449 269-508 limits assumed): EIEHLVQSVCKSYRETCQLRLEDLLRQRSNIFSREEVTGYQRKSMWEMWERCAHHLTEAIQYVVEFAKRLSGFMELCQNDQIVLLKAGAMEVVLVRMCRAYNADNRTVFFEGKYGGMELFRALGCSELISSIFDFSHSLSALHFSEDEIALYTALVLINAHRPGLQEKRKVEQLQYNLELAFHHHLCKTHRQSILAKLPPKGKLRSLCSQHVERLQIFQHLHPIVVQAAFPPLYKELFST
From the text: Time-resolved FRET (TR-FRET) RORγt coactivator assay was used to identify RORγ modulator compounds with ligand-dependent coactivator displacement. The assay uses a d2-labeled anti-GST antibody, synthetic N-terminally biotinylated peptide which is derived from nuclear receptor coactivator protein RIP140, and a RORγt ligand-binding domain (RORγt-LBD) that is tagged with glutathione-S-transferase (GST). The influence of compounds on the RORγ-peptide interaction relies on the binding dependent energy transfer from a donor to an acceptor fluorophor attached to the binding partner of interest. […] For reduction of background from compound fluorescence, TR-FRET method makes use of generic fluorophore labels and time resolved detection.
The assays were done in a final volume of 20 μl in a 384 well plate in a CHAPS buffer (2 mM CHAPS; 1 mM DTT, 2 mM EDTA; 0.1% BSA), containing 20 nM recombinantly expressed RORγ-LBD fused to GST, 30 nM N-terminally biotinylated peptide, 1 nM streptavidin-terbium conjugate and 20 nM d2 labeled-anti-GST. Test compounds were diluted using 10 mM stock solution. The range of the final compound concentrations used in this test was from 0.3 nM to 30 μM (logarithmic scale). DMSO content of the samples was kept at 1%. The assay was equilibrated for 2 hours in the dark at room temperature in 384 well plates (Falcon). The signal was detected by an Ultra384 reader (TECAN). […] Compounds that promote coactivator displacement induce a concentration-dependent decrease in time-resolved fluorescent signal. Data were collected and analyzed using GraphPad Prism software (GraphPad Software V5.02, San Diego Calif. USA). IC50 in μM and Emax in % were reported for each compound.

[2] = system: Murine EL-4 lymphoma cell line overexpressing human RORγt; assay: IL-17 secretion from EL4 murine lymphoma; format: cell-based; conditions: Mus musculus; human RORγt-transfected EL4 cells, PMA (10 ng/mL) and ionomycin (1 μM), 24 h; read-out: IC50, IL-17 secretion inhibition
In short: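 EL-4 cells electroporated with hRORγt plasmid, seeded at 150000 cells/well and pretreated with compound for 24 h, then stimulated with PMA (10 ng/mL) plus ionomycin (1 μM final) with compound for a further 24 h at 37 °C. IL-17 in supernatant measured by HTRF or ELISA.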

SMILES	IC50 (human RORγt)	IC50 [1]	IC50 [2]	melting point
Cc1ccc(C(NC(=O)Cc2ccc3[nH]c(C)nc3c2)c2ccccc2)c(Br)c1 (centres unmarked) [Cpd. 81, N-[(2-bromo-4-methylphenyl)(phenyl)methyl]-2-(2-methyl-1H-1,3-benzodiazol-5-yl)acetamide]	10 to 100 nM	10 to 100 nM	100 to 1000 nM	138 °C
Cc1ccc(C(NC(=O)Cc2ccc3c(c2)OCC(=O)N3)c2ccccc2)c(N2CCOCC2)c1 (centres unmarked) [Cpd. 2, N-{[4-methyl-2-(morpholin-4-yl)phenyl](phenyl)methyl}-2-(3-oxo-3,4-dihydro-2H-1,4-benzoxazin-7-yl)acetamide]	1000 to 10000 nM	10 to 100 nM	> 10000 nM	
Cc1ccc(C(NC(=O)Cc2ccc3[nH]cc(C)c3c2)c2ccc(C)o2)c(N2CCCCC2)c1 (centres unmarked) [Cpd. 64, 2-(3-methyl-1H-indol-5-yl)-N-{[4-methyl-2-(piperidin-1-yl)phenyl](5-methylfuran-2-yl)methyl}acetamide]	10 to 100 nM	100 to 1000 nM	< 100 nM	
Cc1ccc(C(NC(=O)Cc2ccc3[nH]c(=O)cc(C)c3c2)c2ccccc2)c(N2CCCCC2)c1 (centres unmarked) [Cpd. 11, N-{[4-methyl-2-(piperidin-1-yl)phenyl](phenyl)methyl}-2-(4-methyl-2-oxo-1,2-dihydroquinolin-6-yl)acetamide]	1000 to 10000 nM	100 to 1000 nM	1000 to 10000 nM	
Cc1ccc(C(NC(=O)Cc2ccc3c(c2)CS(=O)(=O)N3)c2ccc(C)o2)c(N2CCCCC2)c1 (centres unmarked) [Cpd. 27, 2-(2,2-dioxo-1,3-dihydro-2,1-benzothiazol-5-yl)-N-{[4-methyl-2-(piperidin-1-yl)phenyl](5-methylfuran-2-yl)methyl}acetamide]	10 to 100 nM	< 10 nM	100 to 1000 nM	
Cc1ccc(C(NC(=O)Cc2ccc3c(c2)C(O)C(=O)N3C)c2ccc(C)o2)c(N2CCCCC2)c1 (centres unmarked) [Cpd. 53, 2-(3-hydroxy-1-methyl-2-oxo-2,3-dihydro-1H-indol-5-yl)-N-{[4-methyl-2-(piperidin-1-yl)phenyl](5-methylfuran-2-yl)methyl}acetamide]	10 to 100 nM	< 10 nM	100 to 1000 nM	
Cc1ccc(C(NC(=O)C2(c3ccc4c(c3)CS(=O)(=O)N4)CC2)c2ccc(C)o2)c(N(C)C)c1 (centres unmarked) [Cpd. 71, N-{[2-(dimethylamino)-4-methylphenyl](5-methylfuran-2-yl)methyl}-1-(2,2-dioxo-1,3-dihydro-2,1-benzothiazol-5-yl)cyclopropane-1-carboxamide]	10 to 100 nM	< 10 nM	100 to 1000 nM	
Cc1ccc(C(NC(=O)Cc2ccc3[nH]c(C)nc3c2)c2ccc(C)o2)c(Br)c1 (centres unmarked) [Cpd. 77, N-[(2-bromo-4-methylphenyl)(5-methylfuran-2-yl)methyl]-2-(2-methyl-1H-1,3-benzodiazol-5-yl)acetamide]	10 to 100 nM	< 10 nM	100 to 1000 nM	
Cc1ccc(C(NC(=O)Cc2ccc3c(c2)CCC3O)c2ccc(C)o2)c(N2CCCCC2)c1 (centres unmarked) [Cpd. 52, 2-(1-hydroxy-2,3-dihydro-1H-inden-5-yl)-N-{[4-methyl-2-(piperidin-1-yl)phenyl](5-methylfuran-2-yl)methyl}acetamide]	10 to 100 nM	< 10 nM	100 to 1000 nM	
Cc1ccc(C(NC(=O)C2(c3ccc4c(c3)CS(=O)(=O)C4)CC2)c2ccc(C)o2)c(C)c1 (centres unmarked) [Cpd. 74, N-[(2,4-dimethylphenyl)(5-methylfuran-2-yl)methyl]-1-(2,2-dioxo-1,3-dihydro-2-benzothiophen-5-yl)cyclopropane-1-carboxamide]	10 to 100 nM	< 10 nM	100 to 1000 nM	
Cc1ccc(C(NC(=O)Cc2ccc3c(c2)C(=O)C(=O)N3)c2ccc(C)o2)c(N2CCCCC2)c1 (centres unmarked) [Cpd. 23, 2-(2,3-dioxo-2,3-dihydro-1H-indol-5-yl)-N-{[4-methyl-2-(piperidin-1-yl)phenyl](5-methylfuran-2-yl)methyl}acetamide]	100 to 1000 nM	100 to 1000 nM	100 to 1000 nM	

More lines, now with the values ahead:

IC50 (human RORγt)	IC50 [1]	IC50 [2]	melting point	SMILES
10 to 100 nM	100 to 1000 nM	< 100 nM	96 °C	Cc1ccc(C(NC(=O)Cc2ccc3c(ccn3C(=O)C3CCOCC3)c2)c2ccc(C)o2)c(N2CCCCC2)c1 (centres unmarked) [Cpd. 118, N-{[4-methyl-2-(piperidin-1-yl)phenyl](5-methylfuran-2-yl)methyl}-2-[1-(oxane-4-carbonyl)-1H-indol-5-yl]acetamide]
10 to 100 nM	< 10 nM	< 100 nM		Cc1ccc(C(NC(=O)C2(c3ccc4c(c3)CS(=O)(=O)N4)CC2)c2ccc(Cl)o2)c(C)c1 (centres unmarked) [Cpd. 87, N-[(5-chlorofuran-2-yl)(2,4-dimethylphenyl)methyl]-1-(2,2-dioxo-1,3-dihydro-2,1-benzothiazol-5-yl)cyclopropane-1-carboxamide]
10 to 100 nM	10 to 100 nM	100 to 1000 nM		CCOc1nc2cc(CC(=O)NC(c3ccccc3)c3ccc(C)cc3Br)ccc2[nH]1 (centres unmarked) [Cpd. 90, N-[(2-bromo-4-methylphenyl)(phenyl)methyl]-2-(2-ethoxy-1H-1,3-benzodiazol-5-yl)acetamide]
10 to 100 nM	< 10 nM	< 100 nM		Cc1ccc(C(NC(=O)C2(c3ccc4c(c3)CC(=O)N4C)CC2)c2ccc(C)o2)c(C)c1 (centres unmarked) [Cpd. 130, N-[(2,4-dimethylphenyl)(5-methylfuran-2-yl)methyl]-1-(1-methyl-2-oxo-2,3-dihydro-1H-indol-5-yl)cyclopropane-1-carboxamide]
10 to 100 nM	10 to 100 nM	< 100 nM		Cc1ccc(C(NC(=O)Cc2ccc3[nH]cc(CCS(C)(=O)=O)c3c2)c2ccc(C)o2)c(N2CCCCC2)c1 (centres unmarked) [Cpd. 98, 2-[3-(2-methanesulfonylethyl)-1H-indol-5-yl]-N-{[4-methyl-2-(piperidin-1-yl)phenyl](5-methylfuran-2-yl)methyl}acetamide]
10 to 100 nM	10 to 100 nM	100 to 1000 nM		Cc1ccc(C(NC(=O)Cc2ccc3[nH]c(C)nc3c2)c2ccccc2)c(N2CCCC2)c1 (centres unmarked) [Cpd. 82, 2-(2-methyl-1H-1,3-benzodiazol-5-yl)-N-{[4-methyl-2-(pyrrolidin-1-yl)phenyl](phenyl)methyl}acetamide]
10 to 100 nM	< 10 nM	100 to 1000 nM		Cc1ccc(C(NC(=O)C2(c3ccc4c(c3)OCS(=O)(=O)N4)CC2)c2ccc(C)o2)c(C)c1 (centres unmarked) [Cpd. 124, N-[(2,4-dimethylphenyl)(5-methylfuran-2-yl)methyl]-1-(2,2-dioxo-1,3-dihydro-4,2,1-benzoxathiazin-6-yl)cyclopropane-1-carboxamide]
10 to 100 nM	< 10 nM	< 100 nM		CC(=O)N1Cc2ccc(C3(C(=O)NC(c4ccc(C)o4)c4ccc(C)cc4C)CC3)cc2C1 (centres unmarked) [Cpd. 127, 1-(2-acetyl-2,3-dihydro-1H-isoindol-5-yl)-N-[(2,4-dimethylphenyl)(5-methylfuran-2-yl)methyl]cyclopropane-1-carboxamide]
